Reference: patent US11613538B2, “Method of inhibiting or reducing a viral infection” (PTC Therapeutics, Inc., priority 2009, dated 2023)

Tested on: hypoxia-induced VEGF production in HeLa cells
Test: cells
Type: cell-based, human
Settings: Homo sapiens, HeLa

**Q.** Which EC50 does the source give for `CCOC(=O)N1CCc2c([nH]c3ccc(Cl)cc23)C1c1ccc(OCC(O)CO)cc1` (stereo not shown) [Compound 1000] here?
**A.** 8 to 40 nM

**Q.** For `CC#CCOC(=O)N1CCc2c([nH]c3ccc(Cl)cc23)C1c1ccc(OCC(O)CN)cc1` (stereo not shown) [Compound 1002], which EC50 is on record?
**A.** 40 to 200 nM

**Q.** With `CCOC(=O)N1CCc2c([nH]c3ccc(Cl)cc23)C1c1ccc(OCC(=O)N2CCN(CCOC)CC2)cc1` (stereo not shown) [Compound 1003] as the compound, how does the EC50 read?
**A.** 8 to 40 nM

**Q.** For `CCOC(=O)N1CCc2c([nH]c3ccc(Cl)cc23)C1c1ccc(OCC(=O)NCCN2CCOCC2)cc1` (stereo not shown) [Compound 1004], which EC50 is on record?
**A.** 8 to 40 nM

**Q.** `COc1ccc(OC(=O)N2CCc3c([nH]c4ccc(Cl)cc34)C2c2ccc(OCCC3CCCN3C)cc2)cc1` (stereo not shown) [Compound 1005] was tested. Which EC50 did it give?
**A.** 200 to 1000 nM

**Q.** How did the EC50 turn out when `CCOC(=O)N1CCc2c([nH]c3ccc(Cl)cc23)C1c1ccc(OCCC2CCCN2C)cc1` (stereo not shown) [Compound 1006] was run?
**A.** 40 to 200 nM

**Q.** With `COC(=O)N1CCc2c([nH]c3ccc(Cl)cc23)C1c1ccc(OCCC2CCCN2C)cc1` (stereo not shown) [Compound 1007] as the compound, how does the EC50 read?
**A.** 40 to 200 nM

**Q.** For `CN1CCCC1CCOc1ccc(C2c3[nH]c4ccc(Cl)cc4c3CCN2C(=O)Oc2ccc(F)cc2)cc1` (stereo not shown) [Compound 1008], which EC50 is on record?
**A.** 40 to 200 nM

**Q.** `COC(=O)N1CCc2c([nH]c3ccc(Cl)cc23)C1c1ccc(OCC2CCCCN2C)cc1` (stereo not shown) [Compound 1010] was tested. Which EC50 did it give?
**A.** 40 to 200 nM

**Q.** For `CCOC(=O)N1CCc2c([nH]c3ccc(Cl)cc23)C1c1ccc(OCC(=O)N2CCOCC2)cc1` (stereo not shown) [Compound 1012], which EC50 is on record?
**A.** 40 to 200 nM

**Q.** For `CCOC(=O)N1CCc2c([nH]c3ccc(Cl)cc23)C1c1ccc(OCC(=O)NCCO)cc1` (stereo not shown) [Compound 1013], which EC50 is on record?
**A.** 8 to 40 nM

**Q.** With `CCOC(=O)N1CCc2c([nH]c3ccc(Cl)cc23)C1c1ccc(OCC(=O)N2CCN(CCO)CC2)cc1` (stereo not shown) [Compound 1014] as the compound, how does the EC50 read?
**A.** 40 to 200 nM

**Q.** How did the EC50 turn out when `CCOC(=O)N1CCc2c([nH]c3ccc(Cl)cc23)C1c1ccc(OCC(=O)NCCOC)cc1` (stereo not shown) [Compound 1015] was run?
**A.** 40 to 200 nM

**Q.** Which EC50 does the source give for `O=C(Oc1ccc(Cl)cc1)N1CCc2c([nH]c3ccc(Cl)cc23)C1c1ccc(OCCCn2nccn2)cc1` (stereo not shown) [Compound 1016] here?
**A.** > 1000 nM

**Q.** How did the EC50 turn out when `O=C(Oc1ccc(F)cc1)N1CCc2c([nH]c3ccc(Cl)cc23)C1c1ccc(OCCCn2nccn2)cc1` (stereo not shown) [Compound 1017] was run?
**A.** < 8 nM

**Q.** How did the EC50 turn out when `CC#CCOC(=O)N1CCc2c([nH]c3ccc(Cl)cc23)C1c1ccc(OCC(O)CO)cc1` (stereo not shown) [Compound 1018] was run?
**A.** 8 to 40 nM

**Q.** With `C#CCCOC(=O)N1CCc2c([nH]c3ccc(Cl)cc23)C1c1ccc(OCC(O)CO)cc1` (stereo not shown) [Compound 1019] as the compound, how does the EC50 read?
**A.** 8 to 40 nM

**Q.** `C#CCOC(=O)N1CCc2c([nH]c3ccc(Cl)cc23)C1c1ccc(OCC(O)CO)cc1` (stereo not shown) [Compound 1020] was tested. Which EC50 did it give?
**A.** 8 to 40 nM

**Q.** How did the EC50 turn out when `COCCN1CCN(C(=O)COc2ccc(C3c4[nH]c5ccc(Cl)cc5c4CCN3C(=O)Oc3ccc(F)cc3)cc2)CC1` (stereo not shown) [Compound 1021] was run?
**A.** 40 to 200 nM

**Q.** How did the EC50 turn out when `O=C(COc1ccc(C2c3[nH]c4ccc(Cl)cc4c3CCN2C(=O)Oc2ccc(F)cc2)cc1)NCCN1CCOCC1` (stereo not shown) [Compound 1022] was run?
**A.** 40 to 200 nM

**Q.** With `O=C(COc1ccc(C2c3[nH]c4ccc(Cl)cc4c3CCN2C(=O)Oc2ccc(F)cc2)cc1)N1CCOCC1` (stereo not shown) [Compound 1023] as the compound, how does the EC50 read?
**A.** 8 to 40 nM

**Q.** How did the EC50 turn out when `CCN1CCN(C(=O)COc2ccc(C3c4[nH]c5ccc(Cl)cc5c4CCN3C(=O)Oc3ccc(F)cc3)cc2)CC1` (stereo not shown) [Compound 1024] was run?
**A.** 40 to 200 nM

**Q.** `COCCN1CCN(C(=O)COc2ccc(C3c4[nH]c5ccc(Cl)cc5c4CCN3C(=O)Oc3ccc(OC)cc3)cc2)CC1` (stereo not shown) [Compound 1025] was tested. Which EC50 did it give?
**A.** 40 to 200 nM

**Q.** How did the EC50 turn out when `COc1ccc(OC(=O)N2CCc3c([nH]c4ccc(Cl)cc34)C2c2ccc(OCC(=O)NCCN3CCOCC3)cc2)cc1` (stereo not shown) [Compound 1026] was run?
**A.** 8 to 40 nM

**Q.** Which EC50 does the source give for `CCN1CCN(C(=O)COc2ccc(C3c4[nH]c5ccc(Cl)cc5c4CCN3C(=O)Oc3ccc(OC)cc3)cc2)CC1` (stereo not shown) [Compound 1028] here?
**A.** 40 to 200 nM

**Q.** `COc1ccc(OC(=O)N2CCc3c([nH]c4ccc(Cl)cc34)C2c2ccc(OCC(=O)N3CCN(CCCN(C)C)CC3)cc2)cc1` (stereo not shown) [Compound 1029] was tested. Which EC50 did it give?
**A.** > 1000 nM

**Q.** Which EC50 does the source give for `COc1ccc(OC(=O)N2CCc3c([nH]c4ccc(Cl)cc34)C2c2ccc(OCCCN3CCOCC3)cc2)cc1` (stereo not shown) [Compound 1030] here?
**A.** 8 to 40 nM

**Q.** With `COC(=O)N1CCc2c([nH]c3ccc(Cl)cc23)C1c1ccc(OCC2OCCO2)cc1` (stereo not shown) [Compound 1032] as the compound, how does the EC50 read?
**A.** 8 to 40 nM

**Q.** Which EC50 does the source give for `CCOC(=O)N1CCc2c([nH]c3ccc(Cl)cc23)C1c1ccc(OCC2OCCO2)cc1` (stereo not shown) [Compound 1033] here?
**A.** 8 to 40 nM

**Q.** `CCCOC(=O)N1CCc2c([nH]c3ccc(Cl)cc23)C1c1ccc(OCC2OCCO2)cc1` (stereo not shown) [Compound 1034] was tested. Which EC50 did it give?
**A.** < 8 nM

**Q.** With `CCCCOC(=O)N1CCc2c([nH]c3ccc(Cl)cc23)C1c1ccc(OCC2OCCO2)cc1` (stereo not shown) [Compound 1035] as the compound, how does the EC50 read?
**A.** < 8 nM

**Q.** For `CC(C)COC(=O)N1CCc2c([nH]c3ccc(Cl)cc23)C1c1ccc(OCC2OCCO2)cc1` (stereo not shown) [Compound 1037], which EC50 is on record?
**A.** < 8 nM

**Q.** For `CC(C)(C)COC(=O)N1CCc2c([nH]c3ccc(Cl)cc23)C1c1ccc(OCC2OCCO2)cc1` (stereo not shown) [Compound 1038], which EC50 is on record?
**A.** < 8 nM

**Q.** With `O=C(OCCF)N1CCc2c([nH]c3ccc(Cl)cc23)C1c1ccc(OCC2OCCO2)cc1` (stereo not shown) [Compound 1039] as the compound, how does the EC50 read?
**A.** < 8 nM

**Q.** How did the EC50 turn out when `O=C(OCCCl)N1CCc2c([nH]c3ccc(Cl)cc23)C1c1ccc(OCC2OCCO2)cc1` (stereo not shown) [Compound 1040] was run?
**A.** 8 to 40 nM

**Q.** `O=C(OCCCCl)N1CCc2c([nH]c3ccc(Cl)cc23)C1c1ccc(OCC2OCCO2)cc1` (stereo not shown) [Compound 1041] was tested. Which EC50 did it give?
**A.** 8 to 40 nM

**Q.** Which EC50 does the source give for `COCCOC(=O)N1CCc2c([nH]c3ccc(Cl)cc23)C1c1ccc(OCC2OCCO2)cc1` (stereo not shown) [Compound 1042] here?
**A.** 8 to 40 nM

**Q.** With `C=COC(=O)N1CCc2c([nH]c3ccc(Cl)cc23)C1c1ccc(OCC2OCCO2)cc1` (stereo not shown) [Compound 1043] as the compound, how does the EC50 read?
**A.** < 8 nM

**Q.** `C=CCOC(=O)N1CCc2c([nH]c3ccc(Cl)cc23)C1c1ccc(OCC2OCCO2)cc1` (stereo not shown) [Compound 1044] was tested. Which EC50 did it give?
**A.** < 8 nM

**Q.** With `C=CCCOC(=O)N1CCc2c([nH]c3ccc(Cl)cc23)C1c1ccc(OCC2OCCO2)cc1` (stereo not shown) [Compound 1045] as the compound, how does the EC50 read?
**A.** < 8 nM

**Q.** With `C=C(C)OC(=O)N1CCc2c([nH]c3ccc(Cl)cc23)C1c1ccc(OCC2OCCO2)cc1` (stereo not shown) [Compound 1046] as the compound, how does the EC50 read?
**A.** 8 to 40 nM

**Q.** How did the EC50 turn out when `CC#CCOC(=O)N1CCc2c([nH]c3ccc(Cl)cc23)C1c1ccc(OCC2OCCO2)cc1` (stereo not shown) [Compound 1047] was run?
**A.** < 8 nM

**Q.** For `C#CCOC(=O)N1CCc2c([nH]c3ccc(Cl)cc23)C1c1ccc(OCC2OCCO2)cc1` (stereo not shown) [Compound 1048], which EC50 is on record?
**A.** < 8 nM

**Q.** For `C#CCCOC(=O)N1CCc2c([nH]c3ccc(Cl)cc23)C1c1ccc(OCC2OCCO2)cc1` (stereo not shown) [Compound 1049], which EC50 is on record?
**A.** < 8 nM

**Q.** `O=C(Oc1ccc(Cl)cc1)N1CCc2c([nH]c3ccc(Cl)cc23)C1c1ccc(OCC2OCCO2)cc1` (stereo not shown) [Compound 1053] was tested. Which EC50 did it give?
**A.** < 8 nM

**Q.** How did the EC50 turn out when `O=C(OCc1ccccc1)N1CCc2c([nH]c3ccc(Cl)cc23)C1c1ccc(OCC2OCCO2)cc1` (stereo not shown) [Compound 1056] was run?
**A.** < 8 nM

**Q.** How did the EC50 turn out when `O=C(OCc1ccccc1Cl)N1CCc2c([nH]c3ccc(Cl)cc23)C1c1ccc(OCC2OCCO2)cc1` (stereo not shown) [Compound 1057] was run?
**A.** < 8 nM

**Q.** How did the EC50 turn out when `O=C(OCc1ccccc1)N1CCc2c([nH]c3ccc(Cl)cc23)C1c1ccc(OCCCO)cc1` (stereo not shown) [Compound 1059] was run?
**A.** < 8 nM

**Q.** For `C=CCOC(=O)N1CCc2c([nH]c3ccc(Cl)cc23)C1c1ccc(OCCCO)cc1` (stereo not shown) [Compound 1060], which EC50 is on record?
**A.** < 8 nM

**Q.** With `CC(C)COC(=O)N1CCc2c([nH]c3ccc(Cl)cc23)C1c1ccc(OCCCO)cc1` (stereo not shown) [Compound 1061] as the compound, how does the EC50 read?
**A.** < 8 nM

**Q.** How did the EC50 turn out when `O=C(COc1ccc(C2c3[nH]c4ccc(Cl)cc4c3CCN2C(=O)Oc2ccc(F)cc2)cc1)NCCO` (stereo not shown) [Compound 1063] was run?
**A.** 8 to 40 nM

**Q.** With `O=C(COc1ccc(C2c3[nH]c4ccc(Cl)cc4c3CCN2C(=O)Oc2ccc(F)cc2)cc1)N1CCN(CCO)CC1` (stereo not shown) [Compound 1064] as the compound, how does the EC50 read?
**A.** 8 to 40 nM
